Experimental data taken from patent publication US6071899A, “Azetidinone derivatives for the treatment of atherosclerosis” (SmithKline Beecham p.l.c., priority 1994, dated 2000).

Experiments:
Lp-PLA2 = target: T1, Lp-PLA2 (Homo sapiens, UniProt Q13093); assay: Screen for Lp-PLA2 inhibition; format: biochemical; conditions: artificial substrate (A) 20 μM, 37° C., pH 7.4, 10 min pre-incubation, 405 nm; enzyme partially purified from human plasma
T1 construct: Lp-PLA2 was partially purified by density gradient centrifugation of human plasma; from tissue; host or cells: human plasma (pooled active fractions, partially purified)
T1 sequence (Q13093 22-441): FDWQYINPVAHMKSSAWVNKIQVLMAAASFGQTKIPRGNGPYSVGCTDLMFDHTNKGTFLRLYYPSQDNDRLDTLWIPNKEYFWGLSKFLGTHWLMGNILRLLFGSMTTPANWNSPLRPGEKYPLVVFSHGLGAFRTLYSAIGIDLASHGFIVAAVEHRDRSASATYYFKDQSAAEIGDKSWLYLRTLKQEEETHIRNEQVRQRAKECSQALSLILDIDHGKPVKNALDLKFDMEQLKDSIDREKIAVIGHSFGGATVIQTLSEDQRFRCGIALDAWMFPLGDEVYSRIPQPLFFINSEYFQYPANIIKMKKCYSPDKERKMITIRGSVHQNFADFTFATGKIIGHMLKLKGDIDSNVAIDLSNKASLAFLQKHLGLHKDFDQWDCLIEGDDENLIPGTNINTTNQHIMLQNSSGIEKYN
Procedure: 1. Screen for Lp-PLA2 inhibition.
Enzyme activity was determined by measuring the rate of turnover of the artificial substrate (A) at 37° C. in 50 mM HEPES (N-2-hydroxyethylpiperazine-N'-2-ethanesulphonic acid) buffer containing 150 mM NaCl, pH 7.4. [drawing 7] Assays were performed in 96 well titre plates.
Lp-PLA2 was partially purified by density gradient centrifugation of human plasma. Active fractions were pooled and used as the source of Lp-PLA2. The enzyme was pre-incubated at 37° C. with vehicle or test compound for 10 min in a total volume of 180 μl. The reaction was then initiated by the addition of 20 μl 10× substrate (A) to give a final substrate concentration of 20 μM. The reaction was followed at 405 nm for 20 minutes using a plate reader with automatic mixing. The rate of reaction was measured as the rate of change of absorbance.

[1] = tested on: lyso-PtdCho formation in human LDL; assay: Inhibition of Cu2+ stimulated lyso-phosphatidylcholine (lyso-PtdCho) formation; format: biochemical; conditions: 5 μM Cu2+
Procedure: 2. Inhibition of Cu 2+stimulated lyso-phosphatidylcholine (lyso-PtdCho) formation.
A 1 ml aliquot of human LDL (0.25 mg protein/ml) was incubated for 15 min at 37° C. with compound or vehicle. 5 μM Cu^2+ was then added to allow oxidation/lyso-PtdCho formation to occur. The incubation was terminated by the addition of 3.75 ml chloroform/methanol/c HCl (200:400:5,v/v/v). Following the addition of 1.25 ml chloroform and 1.25 ml 0.1M HCl, the mixture was vortexed and centrifuged. The lower phase was carefully removed and the upper phase re-extracted with an equal volume of synthetic lower phase. The extracts were pooled and dried under nitrogen.
Phospholipids were reconstituted into 50 μl chloroform/methanol (2:1 v/v). 10 μl aliquots were spotted on to pre-run silica gel HPTLC plates and then developed in chloroform/methanol 25-30% methylamine (60:20:5 v/v/v). Plates were subsequently sprayed with the flourescent indicator, 2-p-toluidinylnaphthalene-6-sulphonic acid (1 mM in 50 mM Tris/HCl, pH 7.4) to identify phospholipid components. Fluorescence was measured at 222 nm using a CAMAG TLC scanner. Lipoprotein lyso-PtdCho content was quantified using a standard curve (0.05-0.5 μg) prepared in parallel.

| Structure (SMILES) | IC50 (Lp-PLA2) [nM] | IC50 ([1]; human LDL 0.25 mg protein/ml, 15 min pre-incubation at 37° C., read-out: IC50 (inhibition of LDL lyso-PtdCho accumulation stimulated by copper ions)) [nM] | inhibition of LDL lyso-PtdCho accumulation stimulated by copper ions (in words) ([1]; human LDL) |
| --- | --- | --- | --- |
| C[C@@H]1C(=O)N(CC(=O)NCCCCCCc2ccccc2)[C@H]1[S+](C)[O-] (relative stereo) [Example 71, trans-N-(6-phenylhexyl)-(3-methyl-4-methylsulphinyl-2-oxoazetidin-1-yl)acetamide] | 30 to 400 | ~60 | dose dependently inhibits |
| C[S+]([O-])C1CC(=O)N1CCCCc1ccccc1 (centres unmarked) [Example 84, 4-Methylsulfinyl-1-(4-phenylbutyl)-azetidin-2-one] | 30 to 400 |  |  |
| C[S+]([O-])C1CC(=O)N1CC(=O)NCCCCCCc1ccccc1 (centres unmarked) [Example 63, N-6-Phenylbexyl-(4-methylsulphinyl-2-oxoazetidin-1-yl)acetamide] | 30 to 400 |  |  |
| CCCCCC[S+]([O-])C1CC(=O)N1CC(=O)NCCCCCCc1ccccc1 (single isomer, unassigned) [Example 79, N-(6-Phenylhexyl)-(4-n-hexylsulfinyl-2-oxoazetidin-1-yl)acetamide] | 30 to 400 |  |  |
| CCCCCC[S+]([O-])C1CC(=O)N1CC(=O)CCc1ccccc1 (single isomer, unassigned) [Example 24, 4-Hexylsulfinyl-1-(4-phenyl-2-oxobutyl)azetidin-2-one] | 30 to 400 |  |  |
| CCCC[S+]([O-])C1CC(=O)N1CC(=O)CCc1ccccc1 (centres unmarked) [Example 18, 4-Butylsulfinyl-1-(4-phenyl-2-oxobutyl)azetidin-2-one] | 30 to 400 |  |  |
